In article PMC7084386, “Sulfonamide Inhibition Studies of an α-Carbonic Anhydrase from Schistosoma mansoni, a Platyhelminth Parasite Responsible for Schistosomiasis” (International Journal of Molecular Sciences, 2020):

Each compound was assayed against T1, SmCA (Schistosoma mansoni, UniProt A0A4Y5UX87) (assay: stopped-flow CO2 hydrase assay). Details: not given.
T1 construct: rSmCA N21-A298, signal peptide and C-terminal GPI-anchoring signal removed; Igk leader, C-terminal myc and His6 tags; secreted by CHO-S cells, IMAC; codon-optimized gene; native ~37 kDa GPI-linked glycoprotein
T1 sequence (A0A4Y5UX87 21-298): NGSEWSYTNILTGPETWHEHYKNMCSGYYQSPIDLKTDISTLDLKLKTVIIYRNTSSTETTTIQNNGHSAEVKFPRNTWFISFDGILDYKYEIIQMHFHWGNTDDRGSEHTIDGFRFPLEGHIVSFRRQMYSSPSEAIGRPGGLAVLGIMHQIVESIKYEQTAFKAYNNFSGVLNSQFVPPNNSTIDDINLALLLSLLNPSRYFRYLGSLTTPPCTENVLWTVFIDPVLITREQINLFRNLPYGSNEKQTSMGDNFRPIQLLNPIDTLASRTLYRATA
Format: biochemical
From the text: stopped-flow CO2 hydrase assay on SmCA

| SMILES | Ki [nM] |
| --- | --- |
| NCCc1ccc(S(N)(=O)=O)cc1 [compound 6, 6] | 7240 ± 144 |

Same assay, conditions: read-out: SmCA ^b

| SMILES | Ki [nM] |
| --- | --- |
| Nc1cccc(S(N)(=O)=O)c1 [compound 1, 1] | 8420 ± 177 |
| Nc1ccc(S(N)(=O)=O)cc1 [compound 2, 2] | 6820 ± 150 |
| NS(=O)(=O)c1cccc(S(N)(=O)=O)c1 [compound 3, 3] | 916 ± 23.8 |
| Cc1ccc(S(N)(=O)=O)cc1 [compound 4, 4] | 4530 ± 90 |
| NCc1ccc(S(N)(=O)=O)cc1 [compound 5, 5] | 9560 ± 191 |
| Nc1ccc(S(N)(=O)=O)cc1F [compound 7, 7] | 3190 ± 70 |
| Nc1ccc(S(N)(=O)=O)cc1Cl [compound 8, 8] | 737 ± 19.1 |
| Nc1ccc(S(N)(=O)=O)cc1Br [compound 9, 9] | 808 ± 16.9 |
| NS(=O)(=O)c1cc(Cl)cc(Cl)c1O [compound 10, 10] | 9270 ± 185 |
| Nc1cc(C(F)(F)F)c(S(N)(=O)=O)cc1S(N)(=O)=O [compound 11, 11] | 183 ± 9.1 |
| Nc1cc(Cl)c(S(N)(=O)=O)cc1S(N)(=O)=O [compound 12, 12] | 645 ± 19.9 |
| Nc1nnc(S(N)(=O)=O)s1 [compound 13, 13] | 137 ± 6.5 |
| Cn1nc(S(N)(=O)=O)sc1=N [compound 14, 14] | 325 ± 6.5 |
| NS(=O)(=O)c1ccc(O)cc1 [compound 15, 15] | 758 ± 26.5 |
| NS(=O)(=O)c1ccc(CO)cc1 [compound 16, 16] | 1460 ± 32.1 |
| NS(=O)(=O)c1ccc(CCO)cc1 [compound 17, 17] | 606 ± 21.3 |
| NS(=O)(=O)c1ccc(C(=O)O)cc1 [compound 18, 18] | 821 |
| Nc1nccc(Nc2ccc(S(N)(=O)=O)cc2)n1 [compound 19, 19] | 1830 ± 36.6 |
| Nc1ccc(S(=O)(=O)Nc2nnc(S(N)(=O)=O)s2)cc1 [compound 20, 20] | 124 ± 5.9 |
| NS(=O)(=O)c1ccc(CCNS(=O)(=O)c2ccc([N+](=O)[O-])cc2CO)cc1 [compound 21, 21] | 163 ± 6.5 |
| Nc1ccc(S(=O)(=O)Nc2ccc(S(N)(=O)=O)cc2)cc1 [compound 22, 22] | 550 ± 14.8 |
| Nc1ccc(S(=O)(=O)NCc2ccc(S(N)(=O)=O)cc2)cc1 [compound 23, 23] | 524 ± 15.7 |
| Nc1ccc(S(=O)(=O)NCCc2ccc(S(N)(=O)=O)cc2)cc1 [compound 24, 24] | 183 ± 4.5 |
